Values quoted from earlier work, collected in patent US5683715A, “Taxane-containing phosphatidylcholine liposomes” (The Liposome Company, Inc., priority 1995, dated 1997).

Assays:
tubulin = conditions: Schiff and Horowitz 1980
[1] = tested on: ovarian and breast cancers, malignant melanoma, colon cancer, leukemias and lung cancer; conditions: literature

Structure (SMILES): CC(=O)O[C@H]1C(=O)[C@@]2(C)[C@H]([C@H](OC(=O)c3ccccc3)[C@]3(O)C[C@H](OC(=O)[C@H](O)[C@@H](NC(=O)c4ccccc4)c4ccccc4)C(C)=C1C3(C)C)[C@]1(OC(C)=O)CO[C@@H]1C[C@@H]2O [Paclitaxel]
- Concentrations of optimal effect on polymerization and stabilization of microtubules (tubulin): near stoichiometric equivalence with tubulin dimers
- Activity against cancers [1]: activity against ovarian and breast cancers, as well as against malignant melanoma, colon cancer, leukemias and lung cancer
